The text below walks through data of article PMC4885489, “Prediction of Drug-Drug Interactions Arising from CYP3A induction Using a Physiologically Based Dynamic Model” (Drug Metabolism and Disposition, 2016).

Where two headings read alike, the source gives them in different places.

Data set [1] relates to CYP3A. Conditions: mean of four human hepatocyte donors; three-parameter fit; Indmax = Emax + 1.
The conditions of data set [2]: cited from earlier work.
For data set [3] the following is noted: cited from earlier work. The source holds these as a separate data set.
For data set [4] the following is noted: human, in vivo.
The conditions of data set [5]: cited from earlier work. The source holds these as a separate data set.
Data set [6] concerns CYP3A. Particulars: mean of four human hepatocyte donors; three-parameter fit; Indmax = Emax + 1. The source holds these as a separate data set.
For data set [7] the following is noted: Monoprotic Acid; ref Meta-analysis (Pade and Stavchansky, 1998); (Avdeef et al., 2000); (Taillardat-Bertschinger et al., 2002); (Loeuillet-Ritzler and Faller, 2004); cited from earlier work.
A further data set in a line: in vitro. Conditions: human, human liver microsomes. In general terms: Liver microsomes are a subcellular fraction often used to study metabolism.
The subject of data set [8] is CYP3A. Description: in vitro. Conditions: human, cryopreserved human hepatocytes, probe testosterone (6β-hydroxytestosterone formation).
The next data set deals with CYP2C9. More on the design: method as in ref (Sahi et al., 2009). Particulars: ref (Sahi et al., 2009), cited from earlier work.
For data set [9] the following is noted: ref Meta-analysis (Odar-Cederlof and Borga, 1974); (Tassaneeyakul et al., 1992); (Ducharme et al., 1995) and 3 others; cited from earlier work.
Data set [10] has as its system rCYP2C9. Conditions: read-out: rCYP2C9 Km; ref (Rowland et al., 2008); cited from earlier work.
For data set [11] the following is noted: ref (Kurata and Wilkinson, 1974); cited from earlier work.
The test system of data set [12] is rCYP2C19. Conditions: read-out: rCYP2C19 Km; ref (Giancarlo et al., 2001); (Bajpai et al., 1996); cited from earlier work.
The subject of data set [13] is CYP3A. Description: in vitro. Particulars: human, cryopreserved human hepatocytes.
The test system of data set [14] is rCYP2C9. Description: Recombinant enzyme metabolism kinetics, rCYP2C9. Particulars: Calculated from CLiv using retrograde model.
In another data set the test system is CYP2B6. More on the design: method as in ref (Hariparsad et al., 2008). Conditions: ref (Hariparsad et al., 2008), cited from earlier work.
Data set [15] relates to rCYP2C19. Description: Recombinant enzyme metabolism kinetics, rCYP2C19. Particulars: Calculated from CLiv using retrograde model.

As to `CCC1(c2ccccc2)C(=O)NC(=O)NC1=O` [Phenobarbital, phenobarbital], the “mRNA Indmax” value with CYP3A [1] came out at 44.2 fold. In data set [2] (in vivo), the CLR is recorded as 0.07 L/h and the fe was 0.24. For the same compound, the “Vss (Minimal PBPK)” value in data set [3] (in vivo) was 0.54 L/kg. The ka in data set [4] stood at 2 h⁻¹. Also, the fa in data set [5] (ref (Varma et al., 2012)) was 1. Further, the “Activity Indmax” value in the data set on CYP3A [6] was 21.1 fold.

In the case of `O=C1NC(=O)C(c2ccccc2)(c2ccccc2)N1` [Phenytoin, phenytoin], the “mRNA Indmax” value in the data set on CYP3A [1] is 24.5 fold. The CLR in data set [2] (from fe 0.008, ref (Kozelka and Hine, 1943), (Borga et al., 1979)) is listed as 0.015 L/h. Further, in data set [2] (ref (Kozelka and Hine, 1943), (Borga et al., 1979)), the fe was 0.008. In addition, in [2] (ref Meta-analysis (Gugler et al., 1976), (Glazko et al., 1969), (Lund et al., 1974), (Perucca et al., 1978)), the CLiv is listed as 1.88 L/h. In addition, the “pKa(s)” value in [7] is reported as 8.15. Further, the microsomal CLint (usually a measure of how fast metabolising enzymes remove a compound, apart from limits set by blood flow) in “in vitro” was 0.97 µL/min/mg. Also, the EC50 is 51.3 µM with CYP3A [8], 9.8 µM in the data set with CYP2C9 (read-out: CYP2C9 IndC50), 123 µM in the data set on CYP3A [13] and 15.3 µM in the data set with CYP2B6 (read-out: CYP2B6 IndC50). The “Vss (Minimal PBPK)” value in data set [3] (ref Meta-analysis (Gugler et al., 1976), (Odar-Cederlof and Borga, 1974), (Glazko et al., 1969), (Lund et al., 1974), (Perucca et al., 1978)) was 0.57 L/kg. Besides, the “CYP2C9 Indmax (Fold, Emax +1)” value with CYP2C9 was 10.7 Fold. In addition, the fa in data set [5] (ref (Bochner et al., 1973)) is listed as 0.9. Besides, the ka in [5] (ref (Tassaneeyakul et al., 1992)) was 0.53 h⁻¹. The fu in data set [9] is listed as 0.10. The values for the Km in the data set on rCYP2C9 [10] and in the data set on rCYP2C19 [12] were 4.1 µM and 36.8 µM, respectively. Further, in [11], the “B:P” value was 0.61. The “Activity Indmax” value in the data set on CYP3A [6] is given as 13.6 fold. Moreover, the “rCYP2C9 Vmax” value in the data set with rCYP2C9 [14] is given as 0.24 pmol/min/pmol. Moreover, in the data set on CYP2B6, the “CYP2B6 Indmax (Fold, Emax +1)” value is reported as 1.9 Fold. Further, in the data set with rCYP2C19 [15], the “rCYP2C19 Vmax” value was 1.53 pmol/min/pmol.
